The source of these data is patent US10813938B2 (priority 2015, dated 2020).

The structures appear in SMILES notation. ≈ marks a conversion by molar mass, not a printed value.

Data set [1] in a line: RH stability study (~97% RH, XRPD before/after). The conditions noted are these: ~97% relative humidity, 1 day, ambient temperature; FIG. 16.
A short description of the next data set: physchem. Particulars: pH 6.8, aqueous buffer, thermodynamic from solid. On the procedure:
The injection volume was 15 μL. […] The following gradient was used: […]

Consider `Cn1c(=O)c2c(ncn2C)n(C)c1=O` [Caffeine], for which the “Solid form after exposure to ~97% RH (XRPD)” value in data set [1] is given as “conversion to the hydrate”. On to `O=C(O[C@@H]1Cc2c(O)cc(O)cc2O[C@@H]1c1cc(O)c(O)c(O)c1)c1cc(O)c(O)c(O)c1` [EGCG, Epigallocatechin gallate], for which the solubility at 24 h in “physchem” stood at 24 mg/mL (≈ 52.4 mM).
